Laboratory results taken from article PMC6486608, “A cell-penetrating peptide blocks Toll-like receptor-mediated downstream signaling and ameliorates autoimmune and inflammatory diseases in mice” (Experimental & Molecular Medicine, 2019).
Ends that are not written are not given here.

Experiments:
[1] = test system: CIA mouse model (DBA/1J mice); assay: RA in a model of CIA; type: in vivo; details: i.p. daily
Method: All animal care and experimental procedures were conducted in accordance with the National Institute of Health Guide for the Care and Use of Laboratory Animals and were approved by the Animal Care and Use Committee of Kyung Hee University [Permit number: KHUASP(SE)-15-115]. Male DBA/1J mice weighing 20–23 g (6–7 weeks old) were purchased from Central Lab Animal Inc. (Seoul, Korea). The mice were housed in a limited-access rodent facility at 22–24 °C with up to four animals per polycarbonate cage under a 12:12-h light/dark cycle with free access to pelleted food and water. CIA was implemented according to the protocol previously described. Briefly, the mice were immunized at the base of the tail with a mixture of 100 μg of chicken type II collagen (CII, Sigma-Aldrich) and an equal volume of complete Freund’s adjuvant (Sigma-Aldrich); this time point was designated as day 0. The mice were then given a booster (second) injection of the mixture on day 14. […] To evaluate arthritis progression in the CIA mice, body weight, paw volume, squeaking score, and the arthritic index were measured. The mouse body weights were measured using a digital balance (Mettler-Toledo Inc., Columbus, OH, USA). Joint pain in the hindlimb was evaluated by scoring squeaking during forced flexion and extension of the hindlimb ankle joint 10 times every 5 s. […] Total numbers of vocalizations detected by the observer were then calculated as the squeaking score. Paw volume was measured by the volume displacement of an electrolyte solution using a water-displacement plethysmometer (Ugo-Basile Biological Research Apparatus Co., Comerio-Varese, Italy) as described elsewhere[13],[14]. The hind paw was immersed to the level of the hairy skin, and the volumes were read on a digital display. Paw volume was expressed as a relative value compared with that on day 0, which was defined as 1.0 (100%). […]

[2] = molecular target: T1, BB loop (710-RDFIPGVAIAA-720) of the TLR4-TIR domain (Homo sapiens, UniProt O00206); assay: SPR, BB loop; type: binding
T1 construct: Synthetic peptides encoding the BB loop (710-RDFIPGVAIAA-720) of the TIR domain were immobilized; purchased Peptron, Inc. (Daejeon, Korea); host or cells: chemical synthesis
Method: The SPR experiments were conducted using a ProteOn XPR36 instrument (Bio-Rad Laboratories, Inc.) with a ProteOn NLC sensor chip. PBST served as running buffer, and 0.85% phosphoric acid or PBST was used for regeneration. Synthetic peptides encoding the BB loop (710-[…]-720) of the TIR domain were immobilized by NeutrAvidin bound to the GLC polymer layer onto surfaces of an NLC sensor chip as described in the protocol. Different concentrations of TIP1 (12.5, 25, or 50 μM) were run into the chip to check their binding with the immobilized peptides. Running buffer was injected into an empty channel as a reference. The dissociation was monitored for 5 min, and the chip was regenerated for the second round. ProteOn Manager software (version 2.0) was employed to analyze the data. The binding curves were processed for the start injection alignment and baseline. A reference-subtracted sensorgram was fitted globally to the curves describing a homogeneous 1:1 model. Data from various doses of TIP1 were grouped together to fit the kinetic rate constants (ka and kd). The equilibrium dissociation constant, KD, was calculated according to the equation KD = kd/ka. Surface plasmon resonance (SPR) is a powerful technique used for high-throughput screening and is considered a potent tool for drug discovery. SPR can provide detailed information on peptide-receptor binding kinetics or small-molecule-protein or protein-protein interactions. […] The association rate constant (ka), dissociation rate constant (kd), and equilibrium dissociation constant (KD) of TIP1 were measured in a dose-dependent manner (Fig. 4a). […] Later, the fluorescence intensities of TIP1-FITC, TLR4, and MyD88 were measured by immunofluorescent staining and confocal microscopy. […] The expression levels of TLR4 and MyD88 and the localization of TIP1-FITC were determined by immunofluorescent staining and confocal microscopy. Orthogonal projections, 3D image reconstruction, and fluorescence intensity profiles of confocal images show localization of TIP1-FITC and TLR4.

kon ([2]; homogeneous 1:1 model, global fit of 12.5, 25, 50 µM, read-out: ka (association rate constant)) [M⁻¹ s⁻¹]	koff ([2]; homogeneous 1:1 model, global fit of 12.5, 25, 50 µM, read-out: kd (dissociation rate constant)) [s⁻¹]	Kd ([2]; printed in figure 4a, calculated as kd/ka) [µM]	Compound	body weight, average ([1]; TIP1 10 nmol/g or prednisolone 5 mg/kg, CIA 16.9 g, normal 21.9 g) [g]	arthritis index score ([1]; TIP1 10 nmol/g or prednisolone)	squeaking and paw volume increase ([1]; TIP1 10 nmol/g or prednisolone)
			C[C@]12C=CC(=O)C=C1CC[C@@H]1[C@@H]2[C@@H](O)C[C@@]2(C)[C@H]1CC[C@]2(O)C(=O)CO [prednisolone]	21.0	significantly decreased the index score	highly increased in the CIA mice compared with normal mice but not in the TIP1 (10 nmol/g)- or prednisolone-injected mice
187	0.00782	41.8	RQIKIWFQNRRMKWKKSHCRVLLI [TIP1]			
